Reference: patent US9834542B2, “LXR modulators” (BRISTOL-MYERS SQUIBB COMPANY, priority 2013, dated 2017)

Target: T1, LXRβ (Homo sapiens, UniProt P55055)
T1 construct: Co-transfection expression plasmids, comprising full-length LXRα (pCMX-h LXRα[…] or LXRβ (pCMX-hLXRβ)); expressed in transfected cells; host or cells: CV-1 African Green Monkey Kidney Cells
T1 sequence (P55055 1-460): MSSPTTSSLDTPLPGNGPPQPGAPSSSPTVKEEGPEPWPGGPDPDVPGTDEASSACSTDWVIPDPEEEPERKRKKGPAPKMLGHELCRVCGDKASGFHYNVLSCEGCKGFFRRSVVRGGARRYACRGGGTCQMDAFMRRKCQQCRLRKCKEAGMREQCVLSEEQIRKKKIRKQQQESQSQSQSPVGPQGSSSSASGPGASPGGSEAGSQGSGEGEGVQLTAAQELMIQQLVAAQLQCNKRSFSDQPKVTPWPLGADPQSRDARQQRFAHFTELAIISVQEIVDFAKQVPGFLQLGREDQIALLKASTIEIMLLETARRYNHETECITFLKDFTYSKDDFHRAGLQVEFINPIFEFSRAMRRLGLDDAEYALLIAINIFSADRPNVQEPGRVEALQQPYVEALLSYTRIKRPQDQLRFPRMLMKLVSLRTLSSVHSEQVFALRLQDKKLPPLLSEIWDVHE
T1 sequence (P19793 1-462 partner): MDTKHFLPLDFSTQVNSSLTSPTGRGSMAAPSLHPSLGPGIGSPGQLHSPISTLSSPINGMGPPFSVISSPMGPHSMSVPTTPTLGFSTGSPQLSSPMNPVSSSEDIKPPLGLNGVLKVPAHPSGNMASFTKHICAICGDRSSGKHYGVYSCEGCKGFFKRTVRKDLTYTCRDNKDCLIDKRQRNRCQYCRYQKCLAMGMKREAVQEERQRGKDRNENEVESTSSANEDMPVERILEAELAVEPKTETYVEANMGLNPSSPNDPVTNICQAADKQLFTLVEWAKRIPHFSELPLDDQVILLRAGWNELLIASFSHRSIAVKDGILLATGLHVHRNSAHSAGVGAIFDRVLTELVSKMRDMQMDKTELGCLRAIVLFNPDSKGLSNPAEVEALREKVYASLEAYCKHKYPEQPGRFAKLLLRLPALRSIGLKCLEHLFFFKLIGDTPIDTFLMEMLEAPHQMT
Assay: Co-transfection assay (LXRE luciferase reporter), LXRβ
Type: cell-based
Conditions: for EC50: CV-1 cells transfected with pCMX-hLXRβ and LXREx1-Tk-Luciferase, 20 hours incubation; for Emax: LXRβ co-transfection, relative to high control 1-(2,4-difluorobenzyl)-2-oxo-6-(4-phenoxyphenyl)-4-(trifluoromethyl)-1,2-dihydropyridine-3-carbonitrile, read-out: % Efficacy
Excerpt: To measure the ability of compounds to activate or inhibit the transcriptional activity of LXR in a cell based assay, the co-transfection assay was used. It has been shown that LXR functions as a heterodimer with RXR. For the co-transfection assay, expression plasmids for LXRα and LXRβ are introduced separately via transient transfection into mammalian cells along with a luciferase reporter plasmid that contains one copy of a DNA sequence that is bound by LXR-RXR heterodimers (LXRE; Willy, P. et. al. 1995). LXRs heterodimerize with the endogenous RXR. Treatment of transfected cells with an LXR agonist increases the transcriptional activity of LXR, which is measured by an increase in luciferase activity.
CV-1 African Green Monkey Kidney Cells
Co-transfection expression plasmids, comprising full-length LXRα (pCMX-h LXRα[…] or LXRβ (pCMX-hLXRβ), reporter plasmid (LXREx1-Tk-Luciferase), and control (pCMX-Galactosidase expression vector) (Willey et al. Genes & Development 9 1033-1045 (1995)).
CV-1 cells were prepared 24 hours prior to the experiment by plating them into T-175 flasks or 500 cm^2 dishes in order to achieve 70-80% confluency on the day of the transfection. The number of cells to be transfected was determined by the number of plates to be screened. Each well of a 384 well plate requires 1.5×10^4 cells. DNA Transfection Reagent was prepared by mixing the required plasmid DNAs with a cationic lipid transfection reagent Transit 2020 (Mirus Bio) for CV1 by following the instructions provided with the reagents. Optimal DNA amounts were determined empirically per cell line and size of vessel to be transfected. For each T175 cm^2 flask a total of 59 ug for CV1 of DNA, 133 uL Transit2020 and 4.5 mL DMEM for CV1 was mixed and added. Cells were then incubated at least 5 hours at 37° C. to prepare screening cells.
Luciferase assay reagent (*Steady-Glo Luciferase Assay System by Promega, CAT#E2550) was prepared by combining before use:
Assay plates were prepared by dispensing 5 μL of compound per well of a 384 well plate to achieve final compound concentration of 10 μM and no more than 0.5% DMSO. Media was removed from the screening cells, the cells trypsinized, harvested cells by centrifugation, counted, and plated at a density of approximately 1.5×10^4 cells in the 384 well assay plate prepared above in a volume of about 95 uL. Assay plates containing both compounds and screening cells (100 μL in total volume) were incubated for 20 hours at 37° C.
After incubation with compounds, media was removed from the cells and luciferase assay reagent (50 μL/well) added. After ˜2 minutes at ambient temperature, the assay plates were read on a luminometer (PE Biosystems Northstar reader with on-board injectors, or Envision(Perkin Elmer) or equivalent).
The LXR/LXRE co-transfection assay can be used to establish the EC50/IC50 values for potency and percent activity or inhibition for efficacy. Efficacy defines the activity of a compound relative to a high control 1-(2,4-difluorobenzyl)-2-oxo-6-(4-phenoxyphenyl)-4-(trifluoromethyl)-1,2-dihydropyridine-3-carbonitrileor a low control (DMSO/vehicle). The dose response curves are generated from a 11 point curve with concentrations differing by ½ LOG units. Each point represents the average of 2 wells of data from duplicate 384 well plate.
The data from this assay is fitted to the following equation, from which the EC50 value may be solved: Y=Bottom+(Top−Bottom)/(1+10^((logEC50-X)*HillSlope)).
The EC50/IC50 is therefore defined as the concentration at which an agonist or antagonist elicits a response that is halfway between the Top (maximum) and Bottom (baseline) values. The EC50/IC50 values represented are the averages of at least 2 and normally 3 independent experiments. […]

| Structure (SMILES) | EC50 [nM] | Emax [%] |
| --- | --- | --- |
| Cc1cc(-c2cnnn2-c2cc(-c3cccc(S(C)(=O)=O)c3)ccc2-n2cc(C(F)(F)F)nc2C)ccc1F [Example 28, 5-(4-fluoro-3-methylphenyl)-1-{3′-(methylsulfonyl)-4-[2-methyl-4-(trifluoromethyl)-1H-imidazol-1-yl]biphenyl-3-yl}-1H-1,2,3-triazole] | 589 | 117 |
| Cc1nc(C(F)(F)F)cn1-c1ccc(-c2cccc(S(C)(=O)=O)c2)cc1-n1nncc1-c1ccc2c(c1)OCO2 [Example 29, 5-(1,3-benzodioxol-5-yl)-1-{3′-(methylsulfonyl)-4-[2-methyl-4-(trifluoromethyl)-1H-imidazol-1-yl]biphenyl-3-yl}-1H-1,2,3-triazole] | 605 | 65 |
| Cc1nc(C(F)(F)F)cn1-c1ccc(-c2cccc(S(C)(=O)=O)c2)cc1-n1nncc1-c1ccc(F)c(Cl)c1 [Example 33, 5-(3-chloro-4-fluorophenyl)-1-{3′-(methylsulfonyl)-4-[2-methyl-4-(trifluoromethyl)-1H-imidazol-1-yl]biphenyl-3-yl}-1H-1,2,3-triazole] | 649 | 103 |
| Cc1nc(C(F)(F)F)cn1-c1ccc(-c2cccc(S(C)(=O)=O)c2)cc1-n1nncc1-c1ccc(F)c(F)c1 [Example 34, 5-(3,4-difluorophenyl)-1-{3′-(methylsulfonyl)-4-[2-methyl-4-(trifluoromethyl)-1H-imidazol-1-yl]biphenyl-3-yl}-1H-1,2,3-triazole] | 661 | 94 |
| Cc1nc(C(F)(F)F)cn1-c1ccc(-c2cccc(S(C)(=O)=O)c2)cc1-n1nncc1-c1cccc(OC(F)F)c1 [Example 37, 5-{3-[(difluoromethyl)oxy]phenyl}-1-{3′-(methylsulfonyl)-4-[2-methyl-4-(trifluoromethyl)-1H-imidazol-1-yl]biphenyl-3-yl}-1H-1,2,3-triazole] | 758 | 96 |
| Cc1nc(C(F)(F)F)cn1-c1ccc(-c2cccc(S(C)(=O)=O)c2)cc1-n1nncc1-c1ccc(Cl)cc1F [Example 39, 5-(4-chloro-2-fluorophenyl)-1-{3′-(methylsulfonyl)-4-[2-methyl-4-(trifluoromethyl)-1H-imidazol-1-yl]biphenyl-3-yl}-1H-1,2,3-triazole] | 860 | 92 |
| Cc1nc(C(F)(F)F)cn1-c1ccc(-c2cccc(S(C)(=O)=O)c2)cc1-n1nncc1-c1ccc(F)cc1F [Example 40, 5-(2,4-difluorophenyl)-1-{3′-(methylsulfonyl)-4-[2-methyl-4-(trifluoromethyl)-1H-imidazol-1-yl]biphenyl-3-yl}-1H-1,2,3-triazole] | 954 | 87 |

Next, values leading:

| EC50 [nM] | Emax [%] | Structure (SMILES) |
| --- | --- | --- |
| 529 | 116 | Cc1nc(C(F)(F)F)cn1-c1ccc(-c2cccc(S(C)(=O)=O)c2)cc1-n1nncc1-c1cccc(C(F)(F)F)c1 [Example 25, 1-{3′-(methylsulfonyl)-4-[2-methyl-4-(trifluoromethyl)-1H-imidazol-1-yl]biphenyl-3-yl}-5-[3-(trifluoromethyl)phenyl]-1H-1,2,3-triazole] |
| 541 | 93 | COc1ccc(-c2cnnn2-c2cc(-c3cccc(S(C)(=O)=O)c3)ccc2-n2cc(C(F)(F)F)nc2C)cc1 [Example 26, 5-[4-(methyloxy)phenyl]-1-{3′-(methylsulfonyl)-4-[2-methyl-4-(trifluoromethyl)-1H-imidazol-1-yl]biphenyl-3-yl}-1H-1,2,3-triazole] |
| 561 | 83 | Cc1nc(C(F)(F)F)cn1-c1ccc(-c2cccc(C(C)(C)C(N)=O)c2)cc1-n1nncc1-c1ccc(OC(F)(F)F)cc1 [Example 27, 2-methyl-2-{4′-[2-methyl-4-(trifluoromethyl)-1H-imidazol-1-yl]-3′-(5-{4-[(trifluoromethyl)oxy]phenyl}-1H-1,2,3-triazol-1-yl)biphenyl-3-yl}propanamide] |
| 605 | 85 | CCCCOc1ccc(-c2cnnn2-c2cc(-c3cccc(S(C)(=O)=O)c3)ccc2-n2cc(C(F)(F)F)nc2C)cc1 [Example 30, 5-[4-(butyloxy)phenyl]-1-{3′-(methylsulfonyl)-4-[2-methyl-4-(trifluoromethyl)-1H-imidazol-1-yl]biphenyl-3-yl}-1H-1,2,3-triazole] |
| 606 | 90 | Cc1nc(C(F)(F)F)cn1-c1ccc(-c2cccc(S(C)(=O)=O)c2)cc1-n1nncc1-c1ccc(OCC(F)(F)F)cc1 [Example 31, 1-{3′-(methylsulfonyl)-4-[2-methyl-4-(trifluoromethyl)-1H-imidazol-1-yl]biphenyl-3-yl}-5-{4-[(2,2,2-trifluoroethyl)oxy]phenyl}-1H-1,2,3-triazole] |
| 633 | 84 | Cc1nc(C(F)(F)F)cn1-c1ccc(-c2cccc(S(C)(=O)=O)c2)cc1-n1nncc1-c1ccc(SC(F)(F)F)cc1 [Example 32, 1-{3′-(methylsulfonyl)-4-[2-methyl-4-(trifluoromethyl)-1H-imidazol-1-yl]biphenyl-3-yl}-5-{4-[(trifluoromethyl)thio]phenyl}-1H-1,2,3-triazole] |
| 663 | 68 | Cc1nc(C(F)(F)F)cn1-c1ccc(-c2cccc(S(C)(=O)=O)c2)cc1-n1nncc1-c1ccc(Cl)c(OC(F)(F)F)c1 [Example 35, 5-{4-chloro-3-[(trifluoromethyl)oxy]phenyl}-1-{3′-(methylsulfonyl)-4-[2-methyl-4-(trifluoromethyl)-1H-imidazol-1-yl]biphenyl-3-yl}-1H-1,2,3-triazole] |
| 724 | 60 | CC(=O)c1ccc(-c2cnnn2-c2cc(-c3cccc(S(C)(=O)=O)c3)ccc2-n2cc(C(F)(F)F)nc2C)cc1 [Example 36, 1-[4-(1-{3′-(methylsulfonyl)-4-[2-methyl-4-(trifluoromethyl)-1H-imidazol-1-yl]biphenyl-3-yl}-1H-1,2,3-triazol-5-yl)phenyl]ethanone] |
